Assay results published in publication PMC9100673, “Acridine Based N-Acylhydrazone Derivatives as Potential Anticancer Agents: Synthesis, Characterization and ctDNA/HSA Spectroscopic Binding Properties” (Molecules, 2022).

Experiments:
[1] = target: T1, human serum albumin (HSA) (Homo sapiens, UniProt P02768); test: HSA competitive site-marker experiment, reverse titration with 3a; type: binding; settings: for KSV / Kb: 25 °C
T1 construct: purchased Sigma (St. Louis, MO, USA)
Procedure: Displacement experiments were performed using warfarin and ibuprofen as site marker fluorescence probes, as these agents have been proven to bind with HSA at Sudlow sites I and II, respectively. The fluorescence quenching spectra of HSA:acridine derivatives […] (Figure 5) in the presence of increasing concentrations of specific site markers, warfarin or ibuprofen, were studied.
In addition to the spectra assays, reverse titration studies were also performed. The intensity of the fluorescence of the HSA:site marker complex was recorded at increasing concentrations of acridine derivative 3a, with the obtained results given in Figure S7. […] The obtained data were analysed using Equations (3) and (4). The linear Stern-Volmer dependence and dependence log(F0 − F)/F = log[Q] was used to obtain Stern-Volmer quenching constant values (KSV) and apparent binding constant values (Kb). […] A marked change in the quenching constant was also observed after the addition of ibuprofen, a result which could be partly due to the interaction between derivative 3a and ibuprofen. Similar changes and associated interactions between the marker and the studied ligand have been observed in other studies in which competitive experiments were conducted.
Competitive experiments of HSA were performed using warfarin and ibuprofen as standard site marker ligands. The selected markers for the site I were warfarin, whereas site II was probed using ibuprofen. HSA-acridine derivative (3a–3d) complexes at a concentration ratio of 1:1 ([HSA] = 4 μM) were titrated into specific side markers (0–20 μM). The molar ratio of the HSA:marker complexes were 1:0.5, 1:1, 1:1.5, 1:2, 1:2.5, 1:3, 1:3.5, 1:4, 1:4.5 and 1:5. The reaction mixture of the HSA-acridine derivatives complexes with the side markers were preincubated for 15 min prior to spectral measurements. Additionally, a reverse titration competitive experiment was performed for derivative 3a. The site probe-HSA complex (1:1, [HSA] = 4 μM) was titrated with derivative 3a at a concentration gradient of 0.6–6 μM. In order to determine the binding site of compound 3a, the fluorescence quenching data were analysed using Stern-Volmer and modified Stern-Volmer equations to calculate the value of the Stern-Volmer constants (KSV) and binding constants Kb, and to determine the number of binding sites n. All spectra measurements were performed at 280 nm excitation wavelength and the slits were set at 5 nm for excitation and 10 nm for emission spectra at a range of 290–550 nm and at 25 °C.

calf thymus DNA (ctDNA) = test: UV-Vis absorption titration with ctDNA (Benesi-Hildebrand); type: binding; settings: Tris-HCl pH 7.4, room temperature
Source text: Changes in absorbance intensity (either hyperchromic or hypochromic) and a shift in the peak position (hypsochromicity or batochromicity) are typical spectral properties closely related to the interaction of a drug with DNA [60, 61]. […] The absorption spectra of compounds 3a–3d in the presence of increasing concentrations of ctDNA show hypochromicity (16–51%) and a slight hypsochromic shift (Δλ = 1–9 nm, 3a–3d), findings which indicate that the acridine derivatives have interacted with DNA (Table 3). […]
The binding constant Kb of compounds 3a–3d was determined using the modified Benesi-Hildebrand Equation (6):(6) A0/A−A0=εB/εB + DNA+εB/εB + DNA × 1/KbDNA, where A0 and A are the absorbances of the acridine derivatives in the absence and presence of ctDNA; εB and εB + DNA are the molar extinction coefficients of the acridine derivatives individually and in the bound complex, respectively; Kb is the binding constant; and [DNA] is the concentration of ctDNA. […]
UV-Vis absorption spectrum of the drug-ctDNA complexes were measured on a Varian Cary 100 Bio UV-Vis Spectrophotometer. The UV-Vis spectra of free compounds 3a–3d and drug-ctDNA complexes were recorded at the wavelength range of 220 to 600 nm. […]

[2] = in the presence of ibuprofen (HSA:marker 1:1)
[3] = in the presence of warfarin (HSA:marker 1:1)

T1 sequence (P02768 25-609): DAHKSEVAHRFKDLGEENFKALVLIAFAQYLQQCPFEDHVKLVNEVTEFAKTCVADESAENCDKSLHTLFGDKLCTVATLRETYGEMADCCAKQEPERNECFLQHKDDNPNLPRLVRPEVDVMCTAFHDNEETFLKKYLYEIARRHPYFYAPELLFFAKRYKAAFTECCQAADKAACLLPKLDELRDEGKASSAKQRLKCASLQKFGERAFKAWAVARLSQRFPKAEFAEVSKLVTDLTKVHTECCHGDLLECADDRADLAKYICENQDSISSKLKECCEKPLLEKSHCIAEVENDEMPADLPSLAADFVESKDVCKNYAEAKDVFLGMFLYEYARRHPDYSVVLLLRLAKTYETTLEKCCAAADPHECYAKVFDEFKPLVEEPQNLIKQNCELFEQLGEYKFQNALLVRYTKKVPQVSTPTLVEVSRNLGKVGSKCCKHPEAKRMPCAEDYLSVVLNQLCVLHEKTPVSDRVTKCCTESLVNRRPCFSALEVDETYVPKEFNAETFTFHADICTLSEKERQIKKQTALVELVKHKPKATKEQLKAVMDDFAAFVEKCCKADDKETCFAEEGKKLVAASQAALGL

Q: Which “binding site on HSA” value ([1]; competition with warfarin and ibuprofen) does the source give for `O=C(N/N=C/c1cccc2cc3ccccc3nc12)c1ccccc1` [3a, N′-[(E)-(Acridin-4-yl)methylidene]benzohydrazide] here?
A: Sudlow site I

Q: And the KSV [1, 2]?
A: 328000 M⁻¹

Q: And the Kb [1, 2]?
A: 667000 M⁻¹

Q: What about the KSV [1, 3] of the same molecule?
A: 226000 M⁻¹

Q: And the Kb [1, 3]?
A: 254000 M⁻¹

Q: Which “Kb, binding constant with ctDNA” value (calf thymus DNA (ctDNA)) does the source give for `O=C(N/N=C/c1cccc2cc3ccccc3nc12)c1ccc(F)cc1` [3b, N′-[(E)-Acridin-4-ylmethylidene]-4-fluorobenzohydrazide] here?
A: 3180 M⁻¹
